Reference: paper PMC3274752 (Cancer discovery, 2011)

Legend:
[1] = test system: Ba/F3 cells expressing DDR2 mutations; experiment: Four-day proliferation of IL-3-independent Ba/F3 cells expressing DDR2 mutants; type: cell-based; settings: for killing / proliferation of DDR2-transformed Ba/F3 cells: IL-3-independent Ba/F3 cells expressing DDR2 mutations, single agent
[2] = test system: SCC lines harboring DDR2 mutations; experiment: Proliferation and viability of SCC lines harboring DDR2 mutations; type: cell-based; settings: for inhibition of proliferation: SCC lines harboring DDR2 mutations
[3] = test system: Ba/F3 cells expressing DDR2 L63V; type: cell-based; settings: Ba/F3 DDR2 L63V grown in 50 nM nilotinib
[4] = test system: NCI-H1703 xenograft tumors; experiment: Xenograft of NCI-H1703 in athymic nude mice; type: in vivo; settings: 50 mg/kg oral gavage, two weeks
[5] = test system: DDR2-mutant HCC-366 cells; settings: cited from earlier work
[6] = cited from earlier work
[7] = test system: NIH-3T3 cells expressing DDR2 L63V; experiment: Soft agar colony formation, NIH-3T3 expressing DDR2 L63V; type: cell-based; settings: single application at the time of plating
[8] = test system: A549 cell line; experiment: Cell-Titer-Glo proliferation, six days, A549; type: cell-based; settings: Homo sapiens, A549, read-out: calculated IC50, proliferation
[9] = test system: NCI-H2286 xenograft tumors; experiment: Xenograft of NCI-H2286 in athymic nude mice; type: in vivo; settings: 50 mg/kg oral gavage, two weeks
[10] = test system: Ba/F3 cells, vector control grown in the presence of IL-3; experiment: Four-day proliferation of control Ba/F3 cells grown in IL-3; type: cell-based; settings: Mus musculus, BaF3, 96 h, read-out: mean calculated IC50 for the control
[11] = test system: NCI-H1703 SCC cell line; settings: NCI-H1703, PDGFRA amplification, positive control

Cc1ccc(C(=O)Nc2ccc(CN3CCN(C)CC3)c(C(F)(F)F)c2)cc1C#Cc1cnc2cccnn12 [AP24534]
killing / proliferation of DDR2-transformed Ba/F3 cells [1]: effective in killing
inhibition of proliferation [2]: inhibited the proliferation of SCC lines harboring DDR2 mutations

CN1CCN(CCOc2cc(OC3CCOCC3)c3c(Nc4c(Cl)ccc5c4OCO5)ncnc3c2)CC1 [AZD0530]
killing / proliferation of DDR2-transformed Ba/F3 cells [1]: modest effect on the proliferation
proliferation on addition of AZD0530 to 50 nM nilotinib [3]: marked reduction in proliferation

Cc1nc(Nc2ncc(C(=O)Nc3c(C)cccc3Cl)s2)cc(N2CCN(CCO)CC2)n1 [dasatinib]
IC50 ([1]; Mus musculus, BaF3, 96 h, read-out: mean calculated IC50 for the mutants): 0.68 µM
tumor size [4]: decrease in tumor size
rank of sensitivity among 83 NSCLC cell lines ([5]; HCC-366): most sensitive squamous cell lung cancer line to dasatinib
toxicity in patients [6]: myelosuppression and the development of pleural and pericardial effusions
colony formation in soft agar [7]: Colony formation could be inhibited
IC50 [8]: 7.4 µM
tumor size [9]: decrease in tumor size
IC50 [10]: 30 µM
cellular annexin V staining ([2]; 48 hours after addition of drug, data not shown): increase in cellular annexin V staining
cell death versus cell cycle arrest by trypan blue exclusion ([2]; DDR2 mutant cell lines): cell death as opposed to cell cycle arrest
sensitivity in proliferation assay [11]: sensitive to both drugs

C#Cc1cccc(Nc2ncnc3cc(OCCOC)c(OCCOC)cc23)c1 [erlotinib]
GI50 ([5]; DDR2 mutant HCC-366 cell line): 0.99 µM
sensitivity relative to dasatinib ([2]; HCC-366 and NCI-H2286, initial experiments, data not shown): at least ten-fold less than dasatinib

Cc1cn(-c2cc(NC(=O)c3ccc(C)c(Nc4nccc(-c5cccnc5)n4)c3)cc(C(F)(F)F)c2)cn1 [nilotinib]
effect on proliferation at 50 nM ([1]; 50 nM, wild-type Ba/F3 cells or Ba/F3 cells expressing DDR2 mutations): little effect on proliferation
killing / proliferation of DDR2-transformed Ba/F3 cells [1]: modest activity
inhibition of proliferation [2]: inhibited the proliferation of SCC lines harboring DDR2 mutations
